{
  "source": "patent US20170320870A1",
  "about": "(Medical Research Council Technology, priority 2009, published 2017)",
  "data": [
    {"target": "T1, LRRK2 wild type (recombinant human, catalytic domain amino acids 970-2527, GST-tagged) (Homo sapiens, UniProt Q5S007)", "T1 construct": "The wild type used was recombinant human, catalytic domain (amino acids 970-2527) GST-tagged, expressed in insect cells; GST; purchased Invitrogen Corporation PV4873; host or cells: insect cells", "T1 sequence (Q5S007 970-2527)": "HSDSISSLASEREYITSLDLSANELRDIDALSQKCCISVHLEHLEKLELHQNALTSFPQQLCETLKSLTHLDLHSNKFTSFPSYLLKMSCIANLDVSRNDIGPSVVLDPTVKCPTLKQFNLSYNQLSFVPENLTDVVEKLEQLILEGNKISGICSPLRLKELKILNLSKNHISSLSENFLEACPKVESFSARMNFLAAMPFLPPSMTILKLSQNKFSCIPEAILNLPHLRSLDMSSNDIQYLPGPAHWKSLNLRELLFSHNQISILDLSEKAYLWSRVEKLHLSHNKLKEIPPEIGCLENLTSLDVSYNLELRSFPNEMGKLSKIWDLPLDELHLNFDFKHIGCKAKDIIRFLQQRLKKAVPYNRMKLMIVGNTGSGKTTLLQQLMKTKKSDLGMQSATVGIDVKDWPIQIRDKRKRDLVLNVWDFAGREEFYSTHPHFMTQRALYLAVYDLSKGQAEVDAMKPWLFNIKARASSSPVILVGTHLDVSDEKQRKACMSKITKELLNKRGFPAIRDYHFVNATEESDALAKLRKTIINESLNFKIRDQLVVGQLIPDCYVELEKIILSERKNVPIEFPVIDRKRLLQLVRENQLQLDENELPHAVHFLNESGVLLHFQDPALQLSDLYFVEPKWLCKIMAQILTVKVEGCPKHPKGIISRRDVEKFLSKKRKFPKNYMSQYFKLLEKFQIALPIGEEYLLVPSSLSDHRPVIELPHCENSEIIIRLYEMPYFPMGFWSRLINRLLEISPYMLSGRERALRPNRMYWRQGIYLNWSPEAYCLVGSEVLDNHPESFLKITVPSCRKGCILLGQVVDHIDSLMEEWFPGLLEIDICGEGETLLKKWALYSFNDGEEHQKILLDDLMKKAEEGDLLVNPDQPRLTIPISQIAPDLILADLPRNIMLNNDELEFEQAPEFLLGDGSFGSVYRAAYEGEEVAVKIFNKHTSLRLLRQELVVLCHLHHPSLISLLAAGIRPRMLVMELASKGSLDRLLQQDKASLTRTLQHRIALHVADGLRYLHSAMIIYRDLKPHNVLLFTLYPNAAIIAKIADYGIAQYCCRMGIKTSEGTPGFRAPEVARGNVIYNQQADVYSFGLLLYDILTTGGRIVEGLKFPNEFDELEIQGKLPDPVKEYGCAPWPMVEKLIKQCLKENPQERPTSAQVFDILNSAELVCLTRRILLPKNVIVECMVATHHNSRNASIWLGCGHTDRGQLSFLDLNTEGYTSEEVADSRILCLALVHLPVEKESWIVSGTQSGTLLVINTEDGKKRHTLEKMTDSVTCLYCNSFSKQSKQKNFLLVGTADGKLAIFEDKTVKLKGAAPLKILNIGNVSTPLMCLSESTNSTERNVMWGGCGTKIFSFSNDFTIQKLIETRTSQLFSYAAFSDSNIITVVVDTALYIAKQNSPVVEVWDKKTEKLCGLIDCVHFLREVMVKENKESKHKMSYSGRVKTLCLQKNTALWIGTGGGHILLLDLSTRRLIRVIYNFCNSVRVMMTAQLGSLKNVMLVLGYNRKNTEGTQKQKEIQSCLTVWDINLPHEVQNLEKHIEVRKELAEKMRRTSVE", "experiment": "LRRK2 wild type protein kinase assay ([γ-33P] ATP, peptide substrate […]), IC50", "format": "biochemical", "conditions": "LRRK2 (variant not given); read-out: Potency score, LRRK2 IC50", "description": "All LRRK2 protein kinases were of human origin and were sourced from Invitrogen Corporation (Carlsbad, Calif. 92008 USA) unless otherwise indicated. The active mutant used was recombinant human, catalytic domain (amino acids 970-2527) containing a G2019S mutation, GST-tagged, expressed in insect cells (Invitrogen Cat#PV4881). The wild type used was recombinant human, catalytic domain (amino acids 970-2527) GST-tagged, expressed in insect cells (Invitrogen Cat#PV4873). The kinase dead mutant used was recombinant human, catalytic domain (amino acids 970-2527) containing a D1994A mutation, GST-tagged, expressed in insect cells (Invitrogen Cat#PM4041AE). No special measures were taken to activate any of the kinases.\nAll assays were carried out at room temperature (˜21° C.) and were linear with respect to time and enzyme concentration under the conditions used. Assays were performed for 180 min in a 96 well format. LRRK2 was present at a concentration of approximately 5 nM. The enzyme was diluted and assayed in 50 mM Tris-HCl pH7.5, 0.1 mM EGTA, 1 mM DTT and 10 mM MgCl2. The concentration of magnesium chloride in the assay was 10 mM. The [γ-33P] […] The peptide substrate in the assay was […] at 100 μM.\nThe assays were initiated with Mg/ATP and stopped by the addition of 25 μl/well 50% orthophosphoric acid. Reactions were harvested onto Whatman P81 Unifilter Plates (Fisher Scientific. Loughborough, LE115RG, UK. Cat# FDU-105-020U) using a Tomtec harvester. (Tomtec Hamden, Conn. 06514. USA) Plates were counted using a Perkin Elmer Top Count NX7. (Perkin Elmer, Shelton Conn. 06484-4794 USA)\nIC50 values of inhibitors were determined after carrying out assays at 10 different concentrations of each compound in duplicate.", "units": {"IC50": "µM"}, "values": [
      {"smiles": "Cc1n[nH]c2ccnc(N[C@@H](C)C3CC3)c12", "note": "[Example 42, ((S)-1-Cyclopropyl-ethyl)-(3-methyl-1H-pyrazolo[4,3-c]pyridin-4-yl)-amine]", "IC50": "0.1 to 1"},
      {"smiles": "Cc1n[nH]c2ccnc(N[C@H](C)C3CC3)c12", "note": "[Example 43, ((R)-1-Cyclopropyl-ethyl)-(3-methyl-1H-pyrazolo[4,3-c]pyridin-4-yl)-amine]", "IC50": "1 to 10"},
      {"smiles": "CC[C@H](C)Nc1nccc2[nH]nc(C)c12", "note": "[Example 44]", "IC50": "0.1 to 1"},
      {"smiles": "Cc1n[nH]c2ccnc(NC(C)CC(C)C)c12", "note": "(stereo not drawn) [Example 45, (1,3-Dimethyl-butyl)-(3-methyl-1H-pyrazolo[4,3-c]pyridin-4-yl)-amine]", "IC50": "1 to 10"},
      {"smiles": "Cc1n[nH]c2ccnc(NC3CCS(=O)(=O)CC3)c12", "note": "[Example 46, (1,1-Dioxo-hexahydro-1λ^6-thiopyran-4-yl)-(3-methyl-1H-pyrazolo[4,3-c]pyridin-4-yl)-amine]", "IC50": "0.1 to 1"},
      {"smiles": "Cc1n[nH]c2ccnc(-c3cnn(C)c3)c12", "note": "[Example 47, 3-Methyl-4-(1-methyl-1H-pyrazol-4-yl)-1H-pyrazolo[4,3-c]pyridine]", "IC50": "1 to 10"},
      {"smiles": "Cc1n[nH]c2ccnc(-c3ccco3)c12", "note": "[Example 48, 4-Furan-2-yl-3-methyl-1H-pyrazolo[4,3-c]pyridine]", "IC50": "0.1 to 1"},
      {"smiles": "Cc1n[nH]c2ccnc(-c3ccccc3F)c12", "note": "[Example 49, 4-(2-Fluoro-phenyl)-3-methyl-1H-pyrazolo[4,3-c]pyridine]", "IC50": "0.1 to 1"},
      {"smiles": "Cc1n[nH]c2ccnc(-c3ccc(F)cc3)c12", "note": "[Example 50, 4-(4-Fluoro-phenyl)-3-methyl-1H-pyrazolo[4,3-c]pyridine]", "IC50": "1 to 10"},
      {"smiles": "Cc1n[nH]c2ccnc(-c3cccc(F)c3)c12", "note": "[Example 51, 4-(3-Fluoro-phenyl)-3-methyl-1H-pyrazolo[4,3-c]pyridine]", "IC50": "1 to 10"},
      {"smiles": "Cc1n[nH]c2ccnc(-c3cccc(NS(C)(=O)=O)c3)c12", "note": "[Example 52, N-[3-(3-Methyl-1H-pyrazolo[4,3-c]pyridin-4-yl)-phenyl]-methane-sulfonamide]", "IC50": "1 to 10"},
      {"smiles": "Cc1n[nH]c2ccnc(-c3ccc(N4CCOCC4)cc3)c12", "note": "[Example 53, 3-Methyl-4-(4-morpholin-4-yl-phenyl)-1H-pyrazolo[4,3-c] pyridine]", "IC50": "1 to 10"},
      {"smiles": "Cc1n[nH]c2ccnc(-c3ccc(C#N)cc3)c12", "note": "[Example 54, 4-(3-Methyl-1H-pyrazolo[4,3-c]pyridin-4-yl)-benzonitrile]", "IC50": "1 to 10"},
      {"smiles": "Cc1n[nH]c2ccnc(-c3ccc(CNS(C)(=O)=O)cc3)c12", "note": "[Example 55, N-[4-(3-Methyl-1H-pyrazolo[4,3-c]pyridin-4-yl)-benzyl]-methane-sulfonamide]", "IC50": "0.1 to 1"},
      {"smiles": "Cc1n[nH]c2ccnc(-c3ccccc3)c12", "note": "[Example 56, 3-Methyl-4-phenyl-1H-pyrazolo[4,3-c] pyridine]", "IC50": "1 to 10"},
      {"smiles": "COc1cccc(-c2nccc3[nH]nc(C)c23)c1", "note": "[Example 57, 4-(3-Methoxy-phenyl)-3-methyl-1H-pyrazolo[4,3-c]pyridine]", "IC50": "1 to 10"},
      {"smiles": "Cc1n[nH]c2ccnc(-c3ccoc3)c12", "note": "[Example 58, 4-Furan-3-yl-3-methyl-1H-pyrazolo[4,3-c]pyridine]", "IC50": "1 to 10"},
      {"smiles": "Cc1n[nH]c2ccnc(Nc3cccc(Cl)c3)c12", "note": "[Example 59, (3-Chloro-phenyl)-(3-methyl-1H-pyrazolo[4,3-c]pyridin-4-yl)-amine]", "IC50": "0.1 to 1"},
      {"smiles": "Cc1n[nH]c2ccnc(Nc3cncc(-c4ccc(C#N)cc4)c3)c12", "note": "[Example 60, 4-[5-(3-Methyl-1H-pyrazolo[4,3-c]pyridin-4-ylamino)-pyridin-3-yl]-benzonitrile]", "IC50": "0.1 to 1"},
      {"smiles": "Cc1n[nH]c2ccnc(Nc3ccn(C)n3)c12", "note": "[Example 61, (3-Methyl-1H-pyrazolo[4,3-c]pyridin-4-yl)-(1-methyl-1H-pyrazol-3-yl)-amine]", "IC50": "0.1 to 1"},
      {"smiles": "Cc1n[nH]c2ccnc(Nc3ccccc3F)c12", "note": "[Example 62, (2-Fluoro-phenyl)-(3-methyl-1H-pyrazolo[4,3-c]pyridin-4-yl)-amine]", "IC50": "0.1 to 1"},
      {"smiles": "Cc1n[nH]c2ccnc(Nc3ccc(N4CCOCC4)nc3)c12", "note": "[Example 63, (3-Methyl-1H-pyrazolo[4,3-c]pyridin-4-yl)-(6-morpholin-4-yl-pyridin-3-yl)-amine]", "IC50": "0.1 to 1"},
      {"smiles": "Cc1n[nH]c2ccnc(Nc3ccc4cn(C)nc4c3)c12", "note": "[Example 64, (2-Methyl-2H-indazol-6-yl)-(3-methyl-1H-pyrazolo[4,3-c]pyridin-4-yl)-amine]", "IC50": "1 to 10"},
      {"smiles": "Cc1n[nH]c2ccnc(Nc3cccc(F)c3)c12", "note": "[Example 65, (3-Fluoro-phenyl)-(3-methyl-1H-pyrazolo[4,3-c]pyridin-4-yl)-amine]", "IC50": "0.1 to 1"},
      {"smiles": "Cc1n[nH]c2ccnc(Nc3cccc(C(F)(F)F)c3)c12", "note": "[Example 66, (3-Methyl-1H-pyrazolo[4,3-c]pyridin-4-yl)-(3-trifluoromethyl-phenyl)-amine]", "IC50": "0.1 to 1"},
      {"smiles": "Cc1n[nH]c2ccnc(Nc3cccc(Br)c3)c12", "note": "[Example 67, (3-Bromo-phenyl)-(3-methyl-1H-pyrazolo[4,3-c]pyridin-4-yl)-amine]", "IC50": "0.1 to 1"},
      {"smiles": "CCOc1ccccc1Nc1nccc2[nH]nc(C)c12", "note": "[Example 68, (2-Ethoxy-phenyl)-(3-methyl-1H-pyrazolo[4,3-c]pyridin-4-yl)-amine]", "IC50": "0.1 to 1"},
      {"smiles": "Cc1n[nH]c2ccnc(Nc3cc(F)cc(F)c3)c12", "note": "[Example 69, (3,5-Difluoro-phenyl)-(3-methyl-1H-pyrazolo[4,3-c]pyridin-4-yl)-amine]", "IC50": "0.1 to 1"},
      {"smiles": "Cc1n[nH]c2ccnc(Nc3ccccc3)c12", "note": "[Example 70, (3-Methyl-1H-pyrazolo[4,3-c]pyridin-4-yl)-phenyl-amine]", "IC50": "0.1 to 1"},
      {"smiles": "CCOc1cccc(Nc2nccc3[nH]nc(C)c23)c1", "note": "[Example 71, (3-Ethoxy-phenyl)-(3-methyl-1H-pyrazolo[4,3-c]pyridin-4-yl)-amine]", "IC50": "1 to 10"},
      {"smiles": "CCOc1ccc(Nc2nccc3[nH]nc(C)c23)cc1", "note": "[Example 72, (4-Ethoxy-phenyl)-(3-methyl-1H-pyrazolo[4,3-c]pyridin-4-yl)-amine]", "IC50": "0.1 to 1"},
      {"smiles": "Cc1n[nH]c2ccnc(Nc3cccc(NS(C)(=O)=O)c3)c12", "note": "[Example 73, N-[3-(3-Methyl-1H-pyrazolo[4,3-c]pyridin-4-ylamino)-phenyl]-methanesulfonamide]", "IC50": "0.1 to 1"},
      {"smiles": "Cc1n[nH]c2ccnc(Nc3ccc(C(=O)N(C)C)cc3)c12", "note": "[Example 74, N,N-Dimethyl-4-(3-methyl-1H-pyrazolo[4,3-c]pyridin-4-ylamino)-benzamide]", "IC50": "0.1 to 1"},
      {"smiles": "Cc1n[nH]c2ccnc(Nc3ccc4c(c3)CN(C)CC4)c12", "note": "[Example 75, (3-Methyl-1H-pyrazolo[4,3-c]pyridin-4-yl)-(2-methyl-1,2,3,4-tetrahydro-isoquinolin-7-yl)-amine]", "IC50": "0.1 to 1"},
      {"smiles": "Cc1n[nH]c2ccnc(Nc3cccc(C(N)=O)c3)c12", "note": "[Example 76, 3-(3-Methyl-1H-pyrazolo[4,3-c]pyridin-4-ylamino)-benzamide]", "IC50": "0.1 to 1"},
      {"smiles": "Cc1n[nH]c2ccnc(Nc3cccc(O)c3)c12", "note": "[Example 77, 3-(3-Methyl-1H-pyrazolo[4,3-c]pyridin-4-ylamino)-phenol]", "IC50": "0.1 to 1"},
      {"smiles": "CC(=O)Nc1cccc(Nc2nccc3[nH]nc(C)c23)c1", "note": "[Example 78, N-[3-(3-Methyl-1H-pyrazolo[4,3-c]pyridin-4-ylamino)-phenyl]-acetamide]", "IC50": "1 to 10"},
      {"smiles": "CC(=O)Nc1ccc(Nc2nccc3[nH]nc(C)c23)cc1", "note": "[Example 79, N-[4-(3-Methyl-1H-pyrazolo[4,3-c]pyridin-4-ylamino)-phenyl]-acetamide]", "IC50": "0.1 to 1"},
      {"smiles": "Cc1n[nH]c2ccnc(Nc3cccc(N4CCOCC4)c3)c12", "note": "[Example 80, (3-Methyl-1H-pyrazolo[4,3-c]pyridin-4-yl)-(3-morpholin-4-yl-phenyl)-aniline]", "IC50": "1 to 10"},
      {"smiles": "Cc1n[nH]c2ccnc(Nc3ccc4nc[nH]c4c3)c12", "note": "[Example 81, (3H-Benzimidazol-5-yl)-(3-methyl-1H-pyrazolo[4,3-c]pyridin-4-yl)-amine]", "IC50": "0.1 to 1"},
      {"smiles": "Cc1n[nH]cc1Nc1nccc2[nH]nc(C)c12", "note": "[Example 82, (3-Methyl-1H-pyrazolo[4,3-c]pyridin-4-yl)-(3-methyl-1H-pyrazol-4-yl)-amine]", "IC50": "1 to 10"},
      {"smiles": "Cc1n[nH]c2ccnc(Nc3ccc(C(N)=O)cc3)c12", "note": "[Example 83, 4-(3-Methyl-1H-pyrazolo[4,3-c]pyridin-4-ylamino)-benzamide]", "IC50": "0.1 to 1"},
      {"smiles": "COc1ccccc1Nc1nccc2[nH]nc(C)c12", "note": "[Example 84, (2-Methoxy-phenyl)-(3-methyl-1H-pyrazolo[4,3-c]pyridin-4-yl)-amine]", "IC50": "0.1 to 1"},
      {"smiles": "Cc1n[nH]c2ccnc(Nc3ccc(N4CCOCC4)cc3)c12", "note": "[Example 85, (3-Methyl-1H-pyrazolo[4,3-c]pyridin-4-yl)-(4-morpholin-4-yl-phenyl)-amine]", "IC50": "0.1 to 1"},
      {"smiles": "Cc1n[nH]c2ccnc(Nc3ccc(N4CCN(C)CC4)cc3)c12", "note": "[Example 86, [4-(4-Methyl-piperazin-1-yl)-phenyl]-(3-methyl-1H-pyrazolo[4,3-c]pyridin-4-yl)-amine]", "IC50": "1 to 10"}
    ]}
  ]
}
